Read-outs that look alike come from different tables or passages of the source.
Key:
[1] = Cytotoxicity in HepG2 cells (intracellular ATP, ATPlite, 48 h); format: cell-based, human; details: human, HepG2 cells
[2] = tested on: P. falciparum stage V gametocytes; assay: Gametocytocidal ATP bioluminescence assay (single point 5 μM and 1 μM, dose-response); format: cell-based, Plasmodium falciparum; details: for Ratio IC50 HepG2/IC50 P. falciparum: IC50 HepG2 divided by IC50 P. falciparum gametocytes
[3] = tested on: luciferase reaction (BacTiter-Glo); assay: Interference assay (inhibition of the BacTiter-Glo luciferase reaction); format: biochemical; design: concentration or dose not given beside the values; details: ATP interference assay
Procedure: To discard possible false-positive results, we performed an interference assay in parallel. […] […]. The ATP solution was made by dissolving ATP powder (ATP standard from the ATPlite 1 step assay kit, reference 6016731, Perkin Elmer) in culture medium. The positive control used was the Luciferase Inhibitor I Calbiochem (Merck, 119113) at 100 μM.

[4] = tested on: P. falciparum asexual stages; details: TCAMS data, cited from earlier work
[5] = tested on: P. falciparum stage V gametocytes; assay: microbe, parasite or virus in culture; design: BacTiter-Glo ATP luminescence viability of purified stage V gametocytes in 384-well plates, per cent inhibition versus DMSO; details: Plasmodium falciparum, 48 h, read-out: % Inhibition
[6] = tested on: HepG2 cells; assay: Cytotoxicity in HepG2 cells (intracellular ATP, ATPlite, 48 h); format: cell-based, human; details: HepG2 cells; IC50 per ratio column head; unit inferred
[7] = IC50 per ratio column head, unit inferred, read-out: Cytotoxicity in HepG2
[8] = Plasmodium falciparum, P. falciparum gametocytes, average, read-out: IC50 Pf Gametocytes average, IC50 (µM) average
[9] = sexual stages (gametocytes), dose-response, read-out: IC50 sexual
[10] = asexual stages, read-out: IC50 asexual
[11] = P. falciparum gametocytes, average, read-out: IC50 Pf Gametocytes average, IC50 (µM) average

SMILES | % Control luminiscence [3] [%] | IC50 at 48 h [1, 7] [µM] | Ratio IC50 HepG2/IC50 P. falciparum [2] | IC50 [2, 8] [µM] | IC50 [2, 9] [µM] | IC50 [4, 10] [µM] | IC50 at 48 h ([1]; HepG2, 48 h exposure, intracellular ATP, read-out: IC50 (μM) Cytotoxicity HepG2) [µM] | IC50 ([2]; Plasmodium falciparum, sexual stages (gametocytes), dose-response, read-out: IC50 sexual) [µM] | IC50 ([4]; P. falciparum asexual stages, read-out: IC50 (µM) Pf asexual stages) [µM] | IC50 ([1]; IC50 per ratio column head, unit inferred) [nM] | IC50 ([2]; Plasmodium falciparum, read-out: IC50 Pf Gametocytes average, IC50 (µM) average) [µM] | inhibition at 5 µM [5] [%] | IC50 [6] [nM] | IC50 [2, 11] [µM]
COc1ccc(-c2cnc3[nH]cc(-c4ccncc4)c3c2)cc1OC [TCMDC-135853] | 92 | 3.1 | 3.46 | 0.9 | 0.897 | 0.126 |  |  |  |  |  |  |  | 
Fc1ccc2[nH]c(-c3cccc(-c4ccc(CN5CCC(CCN6CCCCC6)CC5)cc4)c3)nc2c1 [TCMDC-133940] | 100 | 5.2 | 12 | 0.43 | 0.433 | 0.142 |  |  |  |  |  |  |  | 
COc1cc2nc(N3CCN(C(=O)c4c(Cl)nsc4-c4ccccc4Cl)CC3)nc(N)c2cc1OC.O=C(O)C(F)(F)F [TCMDC-138186] | 100 | 8.18 | 38 | 0.22 | 0.215 | 0.534 |  |  |  |  |  |  |  | 
Cl.c1ccc2c(NCCCCCCNc3c4ccccc4nc4ccccc34)c3ccccc3nc2c1 [TCMDC-124285] | 100 |  | 28 |  | 0.247 | 0.753 |  |  |  | 7000 | 0.25 |  |  | 
FC(F)(F)c1ccc2[nH]c(-c3ccc(-c4cccc(CN5CCC(CCN6CCCCC6)CC5)c4)cc3)nc2c1 [TCMDC-133941] | 100 | 3.4 | 6.67 | 0.51 |  | 0.153 |  |  |  |  |  |  |  | 
COc1ccc2c(NN=Cc3ccc(OC)c4ccccc34)cc(C)nc2c1 [TCMDC-142218] | 97 |  | 10 |  | 0.773 | 0.599 |  |  |  |  |  | 97.5 | 7860 | 0.77
Fc1ccc2[nH]c(-c3ccc(-c4ccc(CN5CCC(CCN6CCCCC6)CC5)cc4)cc3)nc2c1 [TCMDC-133924] | 100 | 5.3 | 12 | 0.46 |  | 0.129 |  |  |  |  |  |  |  | 
COc1cc2nc(N3CCC(CNC(=O)c4ccc(-c5ccc(-c6noc(C)n6)cc5)cc4)CC3)nc(N)c2cc1OC [TCMDC-138754] | 97 | 4.33 | 39 | 0.11 |  | 0.139 |  |  |  |  |  |  |  | 
CS(=O)(=O)c1cccc2sc(N3CCN(C(=O)c4ccc([N+](=O)[O-])o4)CC3)nc12 [TCMDC-124930] | 100 |  | <1.9 |  |  | 1.25 |  |  |  |  |  |  | 18800 | > 10
CCN(CC)CCCn1c(N)c(-c2nc3ccccc3[nH]2)c2nc(C#N)c(C#N)nc21 [TCMDC-123680] | 100 |  | 62 |  |  | 0.267 |  |  |  |  |  |  | 8700 | 0.14
Cc1cc(-c2cccc(CNC3CCCC3)c2)ccc1S(=O)(=O)NCCN1CCCC1 [TCMDC-132279] | 100 |  | 6 |  | 1.24 | 1.24 |  |  |  |  |  |  | 7500 | 1.24
Cc1cccc2[nH]cc(C3CCN(CC4CCC(NC(=O)/C=C/c5ccc(Cl)c(Cl)c5)CC4)CC3)c12 (stereo not drawn) [TCMDC-140137] | 100 |  | 2 |  | 1.45 | 0.163 |  |  |  |  |  |  | 2950 | 1.45
COc1cc2c(cc1CCNCCCCNCCc1cc3c(cc1OC)CCCC3)CCCC2 [TCMDC-137319] | 85 |  | <19 |  | 0.084 | 0.996 |  |  |  |  |  |  | < 1560 | 0.08
CCCCCCCN1CC[C@@H](CCCc2ccnc3ccc(OC)cc23)[C@@H](CCN)C1 [TCMDC-139278] | 100 |  | 11 |  | 0.267 | 0.748 |  |  |  |  |  |  | 2980 | 0.27
Nc1nc(N)c2c(ccc3c2ccn3Cc2ccc(-c3ccccc3)cc2)n1 [TCMDC-137813] | 100 |  | 1.1 |  | 1.45 | 0.048 |  |  |  |  |  |  | 1600 | 1.45
CN1CCN(CC2(Nc3nccc(NCCc4cn(C)c5ccccc45)n3)CCCCC2)CC1 [TCMDC-135122] | 95 |  | 10 |  | 0.697 | 1.81 |  |  |  |  |  |  | 6940 | 0.7
CN(C)S(=O)(=O)c1cc(-c2ccc3nccc(-c4cccc(S(N)(=O)=O)c4)c3c2)cnc1N [TCMDC-134230] | 100 |  | <1.5 |  |  | 0.251 |  |  |  |  |  |  | 14800 | > 10

More lines, main results first:

% Control luminiscence [3] [%] | SMILES | IC50 at 48 h [1, 7] [µM] | Ratio IC50 HepG2/IC50 P. falciparum [2] | IC50 [2, 8] [µM] | IC50 [2, 9] [µM] | IC50 [4, 10] [µM] | IC50 at 48 h ([1]; HepG2, 48 h exposure, intracellular ATP, read-out: IC50 (μM) Cytotoxicity HepG2) [µM] | IC50 ([2]; Plasmodium falciparum, sexual stages (gametocytes), dose-response, read-out: IC50 sexual) [µM] | IC50 ([4]; P. falciparum asexual stages, read-out: IC50 (µM) Pf asexual stages) [µM] | IC50 ([1]; IC50 per ratio column head, unit inferred) [nM] | IC50 ([2]; Plasmodium falciparum, read-out: IC50 Pf Gametocytes average, IC50 (µM) average) [µM] | inhibition at 5 µM [5] [%] | IC50 [6] [nM] | IC50 [2, 11] [µM]
100 | NC1CCN(Cc2ccc(-c3ccc(-c4nc5cc(F)ccc5[nH]4)cc3)cc2)C1 (stereo not drawn) [TCMDC-133872] | 7.25 | 9 | 0.83 |  | 0.184 | 7 | 0.827 | 0.18 |  |  |  |  | 
98 | CC(Cc1ccc(CNC(=O)c2ccc(CC(C)NCCc3cccc(Cl)c3)cc2)cc1)NCCc1cccc(Cl)c1 (stereo not drawn) [TCMDC-139659] |  | 5.53 |  |  | 0.696 |  |  |  |  |  |  | 3150 | 0.57
91 | COc1ccc(CNCCCCCCNCc2ccc(OC)c3ccccc23)c2ccccc12 [TCMDC-137631] |  | 6 |  | 0.505 | 0.581 |  |  |  |  |  |  | 3060 | 0.51
100 | CCCCC(NCC)c1ccc(OCCOc2ccc(C(CCCC)NCC)cc2)cc1 (stereo not drawn) [TCMDC-137612] |  | 14 |  | 0.423 | 0.93 |  |  |  |  |  |  | 6100 | 0.42
100 | O=C(Nc1cccc(Oc2ccccc2)c1)N[C@H]1CCN(Cc2ccc(OCCCN3CCCCC3)cc2)C1 [TCMDC-141785] |  | 3 |  |  | 0.724 |  |  |  |  |  |  | 3520 | 1.13
100 | C[C@H](Cc1ccc(OCCCCCOc2ccc(C[C@@H](C)NC[C@H](O)c3cccc(Cl)c3)cc2)cc1)NC[C@H](O)c1cccc(Cl)c1 [TCMDC-131563] |  | 3.25 |  |  | 0.19 |  |  |  |  |  |  | 1790 | 0.55
100 | N=c1n(CCN2CCCCC2)c2ccccc2n1CC(O)c1ccc(Cl)c(Cl)c1 (stereo not drawn) [TCMDC-124064] |  | 1.59 |  | 3.27 | 0.32 |  |  |  |  |  |  | 5200 | 3.27
100 | C[C@H]1CN(Cc2cccc(-c3cc(CNC(=O)c4cccc(CC5CCN(C)CC5)c4)ccc3F)c2)CCN1C [TCMDC-136349] |  | 8 |  |  | 1.09 |  |  |  |  |  |  | 6970 | 0.85
100 | C[C@H](Cc1ccc(C[C@@H](C)NC[C@H](O)c2cccc(Cl)c2)cc1)NC[C@H](O)COc1ccccc1 [TCMDC-131549] |  | 5 |  | 0.923 | 1.17 |  |  |  |  |  |  | 4700 | 0.92
100 | O=C(Nc1cccc(-c2cccc(-c3ccc(F)cc3)n2)c1)c1ccc([N+](=O)[O-])o1 [TCMDC-124807] |  | 4.55 |  | 1.53 | 0.361 |  |  |  |  |  |  | 6940 | 1.53
100 | CCCCCCC(N)c1ccc(OCCCOc2ccc(C(N)CCCCCC)cc2)cc1 (stereo not drawn) [TCMDC-137621] |  | 36 |  | 0.053 | 1.14 |  |  |  |  |  |  | 1900 | 0.0533
100 | CN(C)CCNCc1cccc(-c2ccc3c(Nc4ccc(Oc5ccccn5)cc4)ccnc3c2)c1 [TCMDC-138493] |  | 20 |  |  | 0.233 |  |  |  |  |  |  | 4490 | 0.22
100 | CN1CCN(CCCN(Cc2ccc(-c3ccc(CNC4CCCC4)cc3)cc2)C(=O)CCC2CCCC2)CC1 [TCMDC-140560] |  | 11 |  | 0.535 | 0.886 |  |  |  |  |  |  | 6000 | 0.53
100 | CC(Cc1ccc(C(=O)Nc2ccc(CC(C)NCCc3cccc(Cl)c3)cc2)cc1)NCCc1ccc(C(F)(F)F)cc1 (stereo not drawn) [TCMDC-139790] |  | 11 |  | 0.307 | 0.57 |  |  |  |  |  |  | 3300 | 0.31
100 | CC(C)CNCc1ccc(-c2ccc(CN(CCCN3CCN(C)CC3)C(=O)CCC3CCCC3)cc2)cc1 [TCMDC-140559] |  | 10 |  |  | 1.05 |  |  |  |  |  |  | 5390 | 0.54
